For one data set, the system named is HIV-IIIb. The data set is described as follows: Antiviral assay in MT4 cells. Format: cell-based. As to conditions: Human immunodeficiency virus 1, 120 h; MT4 cells infected with HIV-IIIb (0.004 m.o.i.), 5 days incubation, CellTiter-Glo; average over time; read-out: EC50 nM in MT-4. As for the experimental part:
(§1) For the antiviral assay utilizing MT4 cells, 0.4 μL of […] test concentration of 3-fold serially diluted compound in DMSO was added to 40 μL of cell growth medium (RPMI 1640, 10% FBS, 1% penicilline/Streptomycine, 1% L-Glutamine, 1% HEPES) in each well of 384-well assay plates (10 concentrations) in quidruplicate. 1 mL aliquots of 2×10^6 MT4 cells are pre-infected for 1 and 3 hours respectively at 37° C. with 25 μL (MT4) or of either cell growth medium (mock-infected) or a fresh 1:250 dilution of an HIV-IIIb concentrated ABI stock (0.004 m.o.i. for MT4 cells). Infected and uninfected cells are diluted in cell growth medium and 35 μL of 2000 (for MT4) cells is added to each well of the assay plates. Assay plates were then incubated in a 37° C. incubator. After 5 days of incubation, 25 μL of 2× concentrated CellTiter-Glo™ Reagent (catalog #G7573, Promega Biosciences, Inc., Madison, WI) was added to each well of the assay plate. Cell lysis was carried out by incubating at room temperature for 2-3 minutes, and then chemiluminescence was read using the Envision reader (PerkinElmer).
Background: Cellular ATP, detected with luciferase, serves as a proxy for viable cell number.

Data set [1] can be described thus: Cytotoxicity in MT4 cells (mock-infected) in the antiviral assay. As to conditions: human. The format is cell-based. On the procedure:
as §1

The mark [2] stands for this setting: MT4 cells (mock-infected), MT4 cells, 5 days incubation, CellTiter-Glo, average over time, read-out: CC50 nM in MT-4.

The term EC50 denotes the concentration needed to bring the measured effect to its halfway point. As usually defined, the CC50 is the concentration giving 50% cytotoxicity.

Read-outs that look alike come from different tables or passages of the source.

For the compound `C[C@@H](NC(=O)c1cn2c(c(O)c1=O)C(=O)N1C3CCC1(CC3)C2)c1c(F)cc(F)cc1F` [Compound 14], in the data set on HIV-IIIb, the EC50 was 6.2 nM. The CC50 at 5 days in data set [1] (setting [2]) turned out to be 13200 nM.
`O=C(NCc1c(F)cc(F)cc1F)c1cn2c(c(O)c1=O)C(=O)N1C[C@H]3CCC[C@@]1(C3)C2` [Compound 7]: the EC50 with HIV-IIIb stood at 2.8 nM. Also, the CC50 at 5 days in data set [1] (setting [2]) was 13000 nM.
The like results for `O=C(NCc1ccc(F)cc1F)c1cn2c(c(O)c1=O)C(=O)N1C[C@@H]3CC[C@]1(C3)C2` [Compound 10, (3R,12aS)—N-(2,4-difluorobenzyl)-7-hydroxy-6,8-dioxo-2,3,4,6,8,12-hexahydro-1H-3,12a-methanodipyrido[1,2-a:1′,2′-d]pyrazine-9-carboxamide] were, in that order, 2.3 nM and 24000 nM.
`O=C(NCc1c(F)cc(F)cc1F)c1cn2c(c(O)c1=O)C(=O)N1C[C@H]3CC[C@@]1(C3)C2` [Compound 12]: the EC50 in the data set with HIV-IIIb is 3.2 nM. The CC50 at 5 days in data set [1] (setting [2]) came out at 53200 nM.
The like results for `O=C(NCc1ccc(F)cc1F)c1cn2c(c(O)c1=O)C(=O)N1C[C@H]3CC[C@@]1(CC3)C2` [Compound 2] were, in that order, 4.4 nM and 53200 nM.
On to `O=C(NCc1ccc(F)cc1F)c1cn2c(c(O)c1=O)C(=O)N1C[C@H]3CC[C@@]1(C3)C2` [Compound 11], for which, in the data set on HIV-IIIb, the EC50 was found to be 3.2 nM. Besides, the CC50 at 5 days in data set [1] (setting [2]) worked out at 27900 nM.
As for `O=C(NCc1ccc(F)cc1F)c1cn2c(c(O)c1=O)C(=O)N1C[C@H]3C[C@]1(C2)C3` [Compound 1], the EC50 in the data set with HIV-IIIb was found to be 3.5 nM. For the same compound, the CC50 at 5 days in data set [1] (setting [2]) worked out at 49900 nM.
In the case of `O=C(NCc1ccc(F)cc1F)c1cn2c(c(O)c1=O)C(=O)N1C3CCC1(CC3)C2` [Compound 3], the 50% effective concentration (EC50) in the data set with HIV-IIIb is 1.9 nM. In data set [1], this compound returned a CC50 at 5 days of 26200 nM.
On to `O=C(NCc1cccc(Cl)c1F)c1cn2c(c(O)c1=O)C(=O)N1C[C@H]3CCC[C@@]1(C3)C2` [Compound 8], for which the EC50 with HIV-IIIb amounted to 2.3 nM. The CC50 at 5 days in data set [1] (setting [2]) amounted to 5300 nM.
The like results for `O=C(NCc1c(F)cc(F)cc1F)c1cn2c(c(O)c1=O)C(=O)N1C[C@@H]3CCC[C@]1(C3)C2` [Compound 5] were, in that order, 1.3 nM and 10600 nM.
With `C[C@@]12CCC[C@]3(Cn4cc(C(=O)NCc5c(F)cc(F)cc5F)c(=O)c(O)c4C(=O)N3C1)C2` [Compound 9], in the data set on HIV-IIIb, the EC50 amounted to 1.4 nM. The CC50 at 5 days in data set [1] (setting [2]) amounted to 8660 nM.
The like results for `O=C(NCc1ccc(F)cc1F)c1cn2c(c(O)c1=O)C(=O)N1C[C@H]3CCC[C@@]1(C3)C2` [Compound 6] were, in that order, 2.6 nM and 9660 nM.
With `O=C(NCc1c(F)cc(F)cc1F)c1cn2c(c(O)c1=O)C(=O)N1C3CCC1(CC3)C2` [Compound 15], the EC50 in the data set with HIV-IIIb came out at 2.3 nM. In addition, in data set [1] (setting [2]), the CC50 at 5 days worked out at 24000 nM.
As to `O=C(NCc1ccc(F)cc1F)c1cn2c(c(O)c1=O)C(=O)N1C[C@@H]3CCC[C@]1(C3)C2` [Compound 4], the EC50 in the data set on HIV-IIIb was 1.6 nM. Also, the CC50 at 5 days in data set [1] (setting [2]) is 11000 nM.
The like results for `O=C(NCc1c(F)cc(F)cc1F)c1cn2c(c(O)c1=O)C(=O)N1C[C@@H]3CC[C@]1(C3)C2` [Compound 13] were, in that order, 1.7 nM and 24300 nM.
